These results are taken from patent US4382923A, “Tetrapeptide acylhydrazides, their production and use” (Takeda Chemical Industries, Ltd., priority 1980, dated 1983).

For experiment [1] the following is noted: direct intracerebral administration; cited from earlier work.
The conditions of experiment [2]: intravenous route; cited from earlier work.
The subject of the next experiment is Slc:ICR mice. The experiment in a line: Phenylquinone writhing method. Format: in vivo. To be noted: oral route; reference. Here is the method:
Phenylquinone writhing method
The compound (I) of the present invention was administered orally or subcutaneously to Slc:ICR mice weighing 18-20 g. According to the method of E. Siegmund, R. Cadmus and G. Lu [Proc. Soc.Exp.Biol, Med. 95, 729 (1957)], 0.02% phenylquinone in 5% ethanol saline was injected intraperitoneally in a dose of 0.1 ml/10 g body weight 30 min. after administration of the compound (I). The frequency of abdominal writhing was then counted for 20 min. Analgesic effect was indicated by comparing test group with control group.
On the technique in general: An intraperitoneal irritant provokes the stretching counted in writhing tests.

For the compound “H-Tyr-Gly-Gly-Phe-Met-OH (H-YGGFM-OH) [enkephalin, pentapeptide isolated from the pig brain]”, the morphinomimetic activity result in experiment [1] was “show morphinomimetic activity”. The analgesic effect entry in experiment [2] is “do not produce analgesic effects”.

Turning to H-Tyr-Gly-Gly-Phe-Leu-OH, the morphinomimetic activity result in experiment [1] is listed as “show morphinomimetic activity”. Also, in experiment [2], the analgesic effect result is given as “do not produce analgesic effects”.

Take `CN1CC[C@]23c4c5ccc(O)c4O[C@H]2[C@@H](O)C=C[C@H]3[C@H]1C5` [morphine]: the “effective dose, analgesic activity (abdominal writhing)” value in the experiment with Slc:ICR mice was 2.5 mg/kg.

In the case of “β-endorphin (YGGFMTSEKSQTPLVTLFKNAIIKNAYKKGE; Beta-endorphin; UniProt P01189 237-267, looked up) [polypeptide consisting of 31 amino acid moieties, peptide-type analgesic]”, the analgesic effect result in experiment [2] is recorded as “overt analgesic action”.
